Active and inactive are the calls of the source. No cut-off for these calls is given here.
Assay: Inhibition of sarcoplasmic/endoplasmic reticulum calcium ATPase at upto 10 uM

Activity, inactive:
C=C1C(=O)O[C@@H]2[C@H]1CC[C@]1(C)[C@@H]3O[C@@H]3[C@H](OC(=O)C=C(C)C)C(=C)[C@@H]21

Assay: Inhibition of sarcoplasmic/endoplasmic reticulum calcium ATPase at upto 100 uM

Activity, inactive:
C=C1CC[C@@H]2[C@@H](OC(=O)[C@@]2(C)OC(=O)/C(C)=C/C)[C@H]2[C@@H]1C[C@@H](OC(C)=O)[C@@]2(C)O
C=C1CC[C@@H]2[C@@H](OC(=O)[C@@]2(C)OC(=O)/C(C)=C\C)[C@H]2[C@@H]1C[C@@H](OC(C)=O)[C@@]2(C)O
C=C1C(=O)O[C@@H]2[C@H]1CC[C@]1(C)[C@@H]3O[C@@H]3[C@H](OC(=O)C=C(C)C)C(=C)[C@@H]21
C/C=C(/C)C(=O)O[C@]1(C)C(=O)O[C@H]2[C@@H]3C(C)=CC[C@@H]3[C@@](C)(O)CC[C@H]21
C=C1C(=O)O[C@@H]2[C@H]1CC[C@]1(C)[C@@H]3O[C@@H]3[C@H](OC(=O)CC(C)C)C(=C)[C@@H]21
C=C1CC[C@@H]2[C@@H](OC(=O)[C@@]2(C)OC(=O)/C(C)=C\C)[C@@H]2C(C)=CC[C@H]12

Source: ChEMBL document CHEMBL1158100, “Sesquiterpenes from Thapsia nitida var. meridionalis and Thapsia nitida var. nitida” (J Nat Prod, 2006)
